The results in this text go back to patent US20100298141A1, “SUBSTITUTED PYRIDINE N-OXIDE HERBICIDES” (E. I. DU PONT DE NEMOURS AND COMPANY, priority 2007, published 2010).

One test relates to bearded sprangletop. The test is described as follows: Test E flooded paddy test. The class given is in vivo, Leptochloa fascicularis. The following applies: Flood, after 21 days, scale 0 to 100. The source says:
(§1) Three plastic pots (ca. 16-cm diameter) per rate were partially filled with sterilized Tama silt loam soil comprising a 35:50:15 ratio of sand, silt and clay and 2.6% organic matter. Separate plantings for each of the three pots were as follows. Seeds from the U.S. of ducksalad (Heteranthera limosa), smallflower umbrella sedge (Cyperus difformis) and purple […] coccinea), were planted into one 16-cm pot for each rate. […] Seeds from the U.S. of barnyardgrass (Echinochloa crus-galli), late watergrass (Echinochloa oryzicola), early watergrass (Echinochloa oryzoides) and junglerice (Echinochloa colona) were planted into one 16-cm pot for each rate. Plantings were sequential so that crop and weed species were at the 2.0 to 2.5-leaf stage at time of treatment. Potted plants were grown in a greenhouse with day/night temperature settings of 30/27° C., and supplemental balanced lighting was provided to maintain a 16-hour photoperiod. Test pots were maintained in the greenhouse until test completion. At time of treatment, test pots were flooded to 3 cm above the soil surface, treated by application of test compounds directly to the paddy water, and then maintained at that water depth for the duration of the test. Effects of treatments on rice and weeds were visually evaluated by comparison to untreated controls after 21 days. […] A dash (-) response means no test result.

In test [1] the test system is water seeded rice seedlings. Nature of the test: Test E flooded paddy test. In kind it is in vivo, Oryza sativa cv. ‘Japonica -M202’. The following applies: Flood, after 21 days, scale 0 to 100.
From the text: as §1

For `Cn1nc(C(F)(F)F)c(C[S+]([O-])c2cc(Br)cc[n+]2[O-])c1Cl` (racemic) [Compound 35], the “Plant response rating, Sprangletop, Brdd.” value is 0 in the test with bearded sprangletop (16 g ai/ha); 90 in the test on bearded sprangletop (32 g ai/ha); 90 with bearded sprangletop (64 g ai/ha); 90 in the test on bearded sprangletop (125 g ai/ha); 90 with bearded sprangletop (250 g ai/ha). Moreover, the “Plant response rating, Rice, Waterseeded” value is recorded as 0 in test [1] (16 g ai/ha); 0 in test [1] (32 g ai/ha); 0 in test [1] (64 g ai/ha); 20 in test [1] (125 g ai/ha); 30 in test [1] (250 g ai/ha).

As for `C#CCOc1c(C[S+]([O-])c2cccc[n+]2[O-])c(C(F)(F)F)nn1C` (stereo not drawn) [Compound 76], the “Plant response rating, Sprangletop, Brdd.” value is recorded as 20 in the test with bearded sprangletop (64 g ai/ha); 70 in the test with bearded sprangletop (125 g ai/ha); 70 with bearded sprangletop (250 g ai/ha); 65 in the test with bearded sprangletop (500 g ai/ha); 65 in the test on bearded sprangletop (1000 g ai/ha). Moreover, the “Plant response rating, Rice, Waterseeded” value in test [1] (64 g ai/ha) is on record as 10; in test [1] (125 g ai/ha) it was 10; in test [1] (1000 g ai/ha), 40.
